In article PMC10629583, “Specific inhibition of an anticancer target, polo-like kinase 1, by allosterically dismantling its mechanism of substrate recognition” (Proceedings of the National Academy of Sciences of the …, 2023):

Legend:
PBD1 F559R mutant = target: T1, PBD1 F559R mutant (Homo sapiens, UniProt P53350, F559R); experiment: FP-based binding/inhibition assay, PBD1 F559R; details: PBD1 F559R, 2 µM protein
T1 construct: constructs expressing PBD1 (residues 345–603) WT (pKM7650); His; TEV site (N); made in house; host or cells: bacteria (E. coli)
T1 sequence (P53350 345-603 F559R): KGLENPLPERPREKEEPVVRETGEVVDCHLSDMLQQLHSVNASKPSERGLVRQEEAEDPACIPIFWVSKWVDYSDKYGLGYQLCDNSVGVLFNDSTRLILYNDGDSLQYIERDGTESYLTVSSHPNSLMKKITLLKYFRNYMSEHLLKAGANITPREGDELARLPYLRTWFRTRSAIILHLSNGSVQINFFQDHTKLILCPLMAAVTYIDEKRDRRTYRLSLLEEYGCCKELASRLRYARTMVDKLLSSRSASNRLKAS
Protocol: (§1) FP assays were carried out essentially as described previously ([35], [36]). FITC-conjugated ligands (15 nM) were mixed with PBDs at their EC85 concentrations. All the samples were analyzed approximately 30 min after reaction in a 384-well format using the SpectraMax Paradigm multimode microplate detection platform (Molecular Devices). Data were analyzed after carrying out at least three independent experiments using GraphPad Prism software version 8.
(§2) Fig. S4. Generation of F559 mutants for in vitro and cell-based assays in Fig. 4. (A) SDS-PAGE showing the proteins used for the FP assays in Fig. 4 A and B. CBB, a Coomassie Brilliant Blue– stained gel. (B) Summary of Kd and EC85 values for PBD1 WT and mutants. The Kd values for PBD1 WT and mutants were determined after extrapolating them from the binding curves as the concentration at which 50% of the FITC-Ahx-DPPLHSpTAI-NH2 are PBD1-bound. The EC85 values indicate the effective concentration of 85% of the maximal concentration calculated for each protein. The FP values were obtained 30 minutes after incubation. For the F559K and F559R mutants, we were not able to determine the EC85 values and therefore used 2 µM of these proteins for the assays in Fig. 4B. N.D., not determined. […]

PBD1 F559K mutant = target: T2, PBD1 F559K mutant (Homo sapiens, UniProt P53350, F559K); experiment: FP-based binding/inhibition assay, PBD1 F559K; details: PBD1 F559K, 2 µM protein
T2 construct: constructs expressing PBD1 (residues 345–603) WT (pKM7650); His; TEV site (N); made in house; host or cells: bacteria (E. coli)
T2 sequence (P53350 345-603 F559K): as the sequence (P53350 345-603 F559R) above, with R215K counted along it
Protocol: as §1, §2

[1] = test system: U2OS cells expressing Pendo-mGFP-Plk1 WT; experiment: MTS proliferation assay, U2OS Plk1 RNAi cells expressing WT Plk1; assay type: cell-based; details: WT Plk1, 3 to 6 μM, 36 h
Protocol: (§3) Cell viability was determined using the […] CellTiter 96® AQueous One Solution Cell Proliferation Assay (MTS) kit (Promega) containing a tetrazolium compound [3-(4,5-dimethylthiazol-2-yl)-5-(3-carboxymethoxy-phenyl)-2-(4-sulfophenyl)-2H-tetrazolium, inner salt (MTS)] and an electron-coupling phenazine ethosulfate. For the MTS assays in Fig. 1B, L363 cells cultured in a 96-well plate were treated with the indicated compounds for 48 h (the final volume of 100 μL). After the compound treatment, cells were additionally treated with 20 μL of the MTS solution and incubated at 37 °C for 2 to 4 h in a humidified 5% CO2 atmosphere. The absorbance of the resulting sample was measured at 490 nm using a PerkinElmer EnSpire Multimode 96-well plate reader. For the MTS assays in Fig. 4E, U2OS cells stably expressing either Pendo-mGFP-Plk1 WT or F559D were seeded at approximately 5,000 cells/well in a 96-well plate, depleted of endogenous Plk1 by RNAi, and then treated with either control DMSO or Allopole as indicated in the schematic diagram in SI Appendix, Fig. S4E.

HeLa cells = experiment: Time-lapse analysis of double thymidine-released HeLa cells; assay type: cell-based; details: HeLa released from double-thymidine block, 10 μM added 7 h after release
Protocol: To carry out time-lapse analysis, HeLa cells were arrested at the G1/S boundary by treating them with 2.5 mM of thymidine for 18 h, releasing them for 9 h, and then treating them again with the same dose of thymidine for another 18 h. The resulting cells were washed with fresh medium, released from the double-thymidine block for 7 h, and then treated with control DMSO or 10 μM of Allopole to examine their effect on cell cycle progression. At the indicated time points, cells were imaged every 30 min using a Keyence BZ-X710 all-in-one microscope.

[2] = test system: U2OS cells expressing Pendo-mGFP-Plk1 F559D; experiment: MTS proliferation assay, U2OS Plk1 RNAi cells expressing Plk1 F559D; assay type: cell-based; details: 3 to 6 μM, 36 h
Protocol: as §3

[3] = test system: Plk1 at centrosomes and kinetochores, HeLa cells; experiment: Confocal imaging of Plk1 localization in HeLa cells; assay type: cell-based; details: 10 μM, 2 h
Protocol: HeLa cells treated with either control DMSO or on 10 μM of Allopole for 2 h were immunostained using anti-Plk1 (F-8, sc-17783, Santa Cruz Biotechnologies), anti-Cep192 ([63]), and anti-CREST (#15-234, Antibodies Incorporated) antibodies and appropriate secondary antibodies, essentially as described previously ([62]). Samples were additionally stained with 2 µg/mL of Hoechst 33342 to reveal chromosomal morphologies. Images were captured using a Zeiss LSM 780 confocal microscope (Carl Zeiss Microscopy, LLC) equipped with plan-apochromat 40× (N.A. 1.3) and 63× (N.A. 1.4) oil-immersion objective lenses; a 34-channel GaAsP spectral detector; and 12-bit, 0.5-μm z-steps.
(§4) Confocal images of unsaturated fluorescence signals were acquired under the same laser intensity at the 12-bit resolution. Fluorescence intensities for identifiable centrosome and kinetochore signals were quantified after the maximum-intensity projection of z-stacks using the Zeiss ZEN v2.1 software (Carl Zeiss Microscopy, LLC). Data were quantified from three independent experiments.

[4] = test system: mGFP-Plk1 WT at centrosomes, U2OS cells; experiment: Confocal quantification of Pendo-mGFP-Plk1 WT in U2OS cells (siPlk1); assay type: cell-based; details: U2OS siPlk1, 8 μM
Protocol: To corroborate the importance of the F559 residue for Allopole-A binding, U2OS cells expressing endogenous promoter (i.e., Pendo)-controlled mGFP-Plk1 WT or F559D mutant were depleted of endogenous Plk1 by RNAi for 48 h (SI Appendix, Fig. S4C), treated with control DMSO or 8 μM of Allopole for 2 or 16 h, and fixed (SI Appendix, Fig. S4D). Afterward, the level of mGFP fluorescence was quantified using confocal microscopy (Fig. 4 C and D). As expected from the results shown in Fig. 1 C and D, Allopole delocalized mGFP-Plk1 WT from centrosomes within 2 h after treatment, and this effect was sustained for up to 16 h. […] This could be attributable to the fact that unlike PBIP1, which binds to PBD1 through the self-priming and binding mechanism ([49]), Bub1, BubR1, and likely Cdc25C require Cdc2-dependent priming phosphorylation to interact with PBD1 ([42]–[44]). […]
as §4

Compound | Inhibition of FITC-phosphopeptide binding (in words) (PBD1 F559R mutant) | Inhibition of FITC-phosphopeptide binding (in words) (PBD1 F559K mutant) | Proliferation rate (in words) [1] | Mitotic progression (in words) (HeLa cells) | Proliferation (in words) [2] | Plk1 signals localized at centrosomes and kinetochores (in words) [3] | Time to delocalization of mGFP-Plk1 WT from centrosomes [4]
O=c1c2sc(Cl)cc2n2c(=S)[nH]nc2n1CC1CC1 [Allopole-A] | failed to inhibit | failed to inhibit |  |  |  |  | 
Cn1cnc([N+](=O)[O-])c1Sc1nnc2n(CC3CC3)c(=O)c3sc(Cl)cc3n12 [Allopole] |  |  | significant reduction in their proliferation rate | effectively blocked mitotic progression for several hours and induced cell death | uninhibited proliferation | greatly diminished | ≤ 2 h
